According to ChEMBL document CHEMBL3045598, “Utilization of nicotinonitrile-2-thiol in the synthesis of new thiepino[2,3-b]pyridine derivative as an in vitro novel antitumor potent” (Med Chem Res, 2013):
Calls of active or inactive are those of the source. The calls are words filed in the database; no cut-off is given here.

System: Ehrlich
Assay: Cytotoxicity against Mus musculus (mouse) EAC cells assessed as decrease in cell viability at 50 ug/ml by trypan blue exclusion assay
Format: functional, cell-based

In the case of `CCOC(=O)C1CCSc2nc(C)cc(C)c2C1=O` (stereo not drawn), the Activity was “Active”.
With `Cc1cc2n(c(=S)c1C#N)CCCC(=O)C2` the Activity was “Active”.
In the case of `CCOC(=O)CCCSc1nc(C)cc(C)c1C#N`, the Activity was “Active”.
